Measured values: US20100233231A1, “USE OF CRYOGENIC PROCESSING TO OBTAIN A SUBSTANTIALLY-THICKENED FORMULATION” (priority 2009, published 2010)
Values belong to the compound of their own block, whether it stands above or below them.

Test: Consistency and homogeneity of the formulation after cryo-processing (observation)
Assay type: physicochemical
Details: 8 cycles
Protocol: Fish oil was cured to a film with the use of heat.
It was processed in a Spex Certiprep cryogrinder for 8 cycles, each cycle lasting 2.0 minutes and with a 2.0 minute between-cycle cool down to maintain the system at cryogenic temperatures.

SMILES: CO[C@H]1C[C@@H]2CC[C@@H](C)[C@@](O)(O2)C(=O)C(=O)N2CCCC[C@H]2C(=O)O[C@H]([C@H](C)C[C@@H]2CC[C@@H](O)[C@H](OC)C2)CC[C@H](C)/C=C(\C)[C@@H](O)[C@@H](OC)C(=O)[C@H](C)C[C@H](C)/C=C/C=C/C=C/1C [Rapamycin derivative]
consistency of resulting formulation (Example 2: 31% in 70% fish oil 30% vitamin E, 20 impacts per second): highly viscous and shear thinning with small crystals evident throughout the sample

consistency of resulting formulation (Example 7: 30% in 70% fish oil 30% Vitamin E, 30 impacts per second): highly viscous and smooth
SMILES: CCCCCCCCCCCCCCCCO [Cetyl Alcohol]

SMILES: O=C(CO)[C@@H](O)[C@H](O)[C@H](O)CO [Fructose]
consistency of resulting formulation (Example 5: 40% in 100% fish oil, 20 impacts per second): highly viscous upon standing and was extremely shear thinning
